# Measured values from ChEMBL document CHEMBL5120968, “Syzysamalactone, an Unusual 11-Carbon δ-Lactone Derivative from the Fresh Ripe Fruits of Syzygium samarangense (Wax Apple)” (J Nat Prod, 2022).
# Tested on: SH-SY5Y
# Assay: Neuroprotective activity against 6-OHDA induced cell death in human SH-SY5Y cells preincubated with 6-hyrdoxydopamine followed by compound addition and measured after 24 hrs by MTT assay
# Format: functional, cell-based
row,SMILES,EC50 [nM]
1,CCCCCc1cccc(=O)o1,1280
2,CC[C@H]1CCc2oc(=O)ccc2[C@H]1O,290
3,COc1cc(/C=C/C(=O)CC(=O)/C=C/c2ccc(O)c(OC)c2)ccc1O [CURCUMIN],5290
